From patent publication US20230066011A1, “PYRROLOPYRIMIDINE DERIVATIVE, AND PHARMACEUTICAL COMPOSITION FOR PREVENTING OR TREATING PROTEIN KINASE-RELATED DISEASE COMPRISING SAME AS ACTIVE INGREDIENT” (VORONOI CO., LTD., priority 2019, published 2023)

Experiments:
[1] = biological target: T1, human GST-DYRK1A (Homo sapiens, UniProt Q13627); assay: GST-DYRK1A enzyme inhibition, ADP-Glo kinase assay; assay type: biochemical; conditions: ATP 10 μM, GST-DYRK1A full length, read-out: DYRK1 IC50
T1 construct: purified human GST-DYRK1A (full length, Thermo Scientifics) enzyme; purchased Thermo Scientifics
Method in brief: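 Full-length human GST-DYRK1A (10 ng) with 10 μM ATP and specific substrate in 40 mM Tris-HCl pH 7.4, 20 mM MgCl2, 0.5 mg/mL BSA, 50 μM DTT, 1 h at 25 °C. ADP formation read by ADP-Glo luminescence relative to solvent control; IC50 from three data sets.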

[2] = biological target: T2, human GST-CLK1 (Homo sapiens, UniProt P49759); assay: GST-CLK1 enzyme inhibition, ADP-Glo kinase assay; assay type: biochemical; conditions: ATP 10 μM, GST-CLK1 129-end
T2 construct: purified human GST-CLK1 (129-end, SignalChem) enzyme; purchased SignalChem
T2 sequence (P49759 129-484 limits assumed): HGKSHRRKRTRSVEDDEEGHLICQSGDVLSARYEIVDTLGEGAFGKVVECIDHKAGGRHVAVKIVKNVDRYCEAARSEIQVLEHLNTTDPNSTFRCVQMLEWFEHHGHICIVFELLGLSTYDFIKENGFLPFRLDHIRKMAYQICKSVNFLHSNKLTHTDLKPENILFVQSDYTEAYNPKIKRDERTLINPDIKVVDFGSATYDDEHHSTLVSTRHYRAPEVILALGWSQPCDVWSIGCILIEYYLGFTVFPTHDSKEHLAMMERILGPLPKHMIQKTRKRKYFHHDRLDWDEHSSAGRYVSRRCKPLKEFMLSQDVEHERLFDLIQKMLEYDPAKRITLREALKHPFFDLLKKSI
Method in brief: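 Human GST-CLK1 (129-end, 3 ng) reacted with substrate and 10 μM ATP for 1 h at 25° C in 40 mM Tris-HCl pH 7.4, 20 mM MgCl2, 0.5 mg/mL BSA, 50 μM DTT. ADP-Glo luminescence was normalised to solvent control; IC50 (nM) from 3 data sets.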

[3] = test system: MDA-MB-231 cell line; assay: Inhibition of proliferation of MDA-MB-231 cancer cells (Cell Titer-Glo); assay type: cell-based; conditions: Homo sapiens, 72 hours
Method in brief: (§1)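 Cells were grown in DMEM or RPMI, seeded at 2,000 cells/well and exposed to 11 threefold dilutions of compound (final 10 to 0.000169 μM) for 72 hours. Viability was read by Cell Titer-Glo luminescence after 10 min at room temperature, and GI50 was calculated from the luminescence data.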

[4] = biological target: T3, TTK (Homo sapiens, UniProt P33981); assay: TTK enzyme inhibition, ADP-Glo kinase assay; assay type: biochemical; design: purchased SignalChem T20-10G; conditions: ATP 5 μM
T3 sequence (P33981 1-857): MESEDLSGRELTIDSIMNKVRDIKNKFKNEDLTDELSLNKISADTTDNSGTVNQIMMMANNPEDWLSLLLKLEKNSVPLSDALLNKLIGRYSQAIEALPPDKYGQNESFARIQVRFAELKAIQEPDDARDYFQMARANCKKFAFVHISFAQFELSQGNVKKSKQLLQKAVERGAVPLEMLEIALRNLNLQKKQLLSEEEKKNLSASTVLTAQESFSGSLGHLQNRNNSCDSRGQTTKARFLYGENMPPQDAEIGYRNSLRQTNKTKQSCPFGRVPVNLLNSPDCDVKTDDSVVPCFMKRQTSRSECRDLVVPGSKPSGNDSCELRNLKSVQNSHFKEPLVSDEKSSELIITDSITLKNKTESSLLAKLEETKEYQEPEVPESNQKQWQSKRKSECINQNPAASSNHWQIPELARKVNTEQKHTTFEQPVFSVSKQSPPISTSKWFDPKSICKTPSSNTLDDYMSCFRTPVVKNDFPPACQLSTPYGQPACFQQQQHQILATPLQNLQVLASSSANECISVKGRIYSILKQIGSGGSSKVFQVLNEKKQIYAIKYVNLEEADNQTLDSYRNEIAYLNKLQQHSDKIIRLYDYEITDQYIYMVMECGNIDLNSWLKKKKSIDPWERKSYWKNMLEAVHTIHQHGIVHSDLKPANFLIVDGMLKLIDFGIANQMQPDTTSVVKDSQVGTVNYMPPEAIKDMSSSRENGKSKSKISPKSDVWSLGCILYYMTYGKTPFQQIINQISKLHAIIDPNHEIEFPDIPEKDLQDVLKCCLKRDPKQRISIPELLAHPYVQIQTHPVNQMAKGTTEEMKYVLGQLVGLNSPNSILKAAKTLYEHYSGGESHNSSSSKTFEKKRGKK
Protocol: To evaluate an inhibitory activity of the compound according to the present invention against LRRK2, LRRK2 (G2019S), DYRK1, CLK1, and TTK kinases, experiments were performed as follows.
Each of the Example compounds was reacted with a purified human TTK (SignalChem #T20-10G) enzyme to evaluate an ability to inhibit an enzyme using a method as described below. A composition of 40 mM Tris-HCl (pH 7.4), 20 mM MgCl2, 0.1 mg/mL BSA (a 5× kinase buffer, SignalChem #K03-09), and 50 μM DTT (SignalChem #D86-09B) was used as a reaction buffer, and all reactions of test substances were performed in the reaction buffer. Each of the compounds was diluted […] from a 10 mM DMSO stock using a serial dilution method, and enzyme activities were measured at final compound concentrations of 1, 0.333333, 0.111111, 0.037037, 0.012346, 0.004115, 0.001372, 0.000457, 0.000152, 0.000051, and 0.000017 μM. In the test, purified ATP (5 μM, Promega #V6930) and an MBP enzyme substrate (0.2 μg, SignalChem M42-51N) were reacted with a human TTK (7.5 ng) enzyme at 25° C. for 4 hours, and the enzyme activities were then determined using an in vitro ADP-Glo™ kinase assay (Promega #V6930). An enzyme-activity reaction solution, an ADP-Glo reaction solution, and an enzyme-ability detection solution were reacted at a ratio of 2:2:1 to measure a degree of inhibition of the enzyme activity with luminescence. The degree of inhibition of the enzyme activity according to the treatment concentration of each of the compounds was calculated based on the fluorescence of the enzyme activity of the solvent control which was not treated with the compound. In this case, the concentration of each of the compounds inhibiting 50% of the enzyme activity was determined to be an IC50 (nM) value, and calculated using Prism (Version 8.2 GraphPad) software.

[5] = test system: MDA-MB-468 cell line; assay: Inhibition of proliferation of MDA-MB-468 cancer cells (Cell Titer-Glo); assay type: cell-based; conditions: Homo sapiens, MDA-MB-468, 72 hours
Method in brief: as §1

An IC50 [1] of 301 to 1000 nM, an IC50 [2] of 301 to 1000 nM and a GI50 [3] of 301 to 1000 nM were found for `COc1cc(P2(=O)CCN(C3CCOCC3)CC2)ccc1Nc1nc(NC2CCCCC2)c2cc[nH]c2n1` [Example 61, 4-(4-((4-(cyclohexylamino)-7H-pyrrolo[2,3-d]pyrimidin-2-yl)amino)-3-methoxyphenyl)-1-(tetrahydro-2H-pyran-4-yl)-1,4-azaphosphinane 4-oxide] in this work. For the same compound, the IC50 [4] was less than 100 nM.

An IC50 [1] of 301 to 1000 nM, an IC50 [2] of less than 100 nM and a GI50 [3] of 51 to 100 nM were found for `CN1CCC(NC(=O)c2ccc(Nc3nc(NC4CCCCC4)c4c(C#N)c[nH]c4n3)c3c2OCCO3)CC1` [Example 143, 8-((5-cyano-4-(cyclohexylamino)-7H-pyrrolo[2,3-d]pyrimidin-2-yl)amino)-N-(1-methylpiperidin-4-yl)-2,3-dihydrobenzo[b][1,4]dioxin-5-carboxamide] in this work. The GI50 [5] was 51 to 100 nM and the IC50 [4] was less than 100 nM.

An IC50 [1] of 301 to 1000 nM, an IC50 [2] of 101 to 300 nM and a GI50 [3] of less than 50 nM were found for `N#Cc1c[nH]c2nc(Nc3ccc(C(=O)N4CCN(C5COC5)CC4)c4c3OCCO4)nc(NC3CCCCC3)c12` [Example 144, 4-(cyclohexylamino)-2-((8-(4-(oxetan-3-yl)piperazine-1-carbonyl)-2,3-dihydrobenzo[b][1,4]dioxin-5-yl)amino)-7H-pyrrolo[2,3-d]pyrimidine-5-carbonitrile] in this work. It also gave a GI50 [5] of 51 to 100 nM and an IC50 [4] of less than 100 nM.

An IC50 [1] of 301 to 1000 nM, an IC50 [2] of 301 to 1000 nM and a GI50 [3] of 51 to 100 nM were found for `N#Cc1c[nH]c2nc(Nc3ccc(C(=O)N4CCN(C5CC5)CC4)c4c3OCCO4)nc(NC3CCCCC3)c12` [Example 145] in this work. For the same compound, the GI50 [5] was 51 to 100 nM and the IC50 [4] was less than 100 nM.

A GI50 [3] of 101 to 300 nM, a GI50 [5] of 101 to 300 nM and an IC50 [4] of less than 100 nM were found for `CN1CCC(NC(=O)c2ccc(Nc3nc(NC4CCCC4)c4c(C#N)c[nH]c4n3)c3c2OCCO3)CC1` [Example 146, 8-((5-cyano-4-(cyclopentylamino)-7H-pyrrolo[2,3-d]pyrimidin-2-yl)amino)-N-(1-methylpiperidin-4-yl)-2,3-dihydrobenzo[b][1,4]dioxin-5-carboxamide] in this work.

An IC50 [1] of 301 to 1000 nM, an IC50 [2] of less than 100 nM and a GI50 [3] of 101 to 300 nM were found for `N#Cc1c[nH]c2nc(Nc3ccc(C(=O)N4CCN(C5COC5)CC4)c4c3OCCO4)nc(NC3CCCC3)c12` [Example 147, 4-(cyclopentylamino)-2-((8-(4-(oxetan-3-yl)piperazine-1-carbonyl)-2,3-dihydrobenzo[b][1,4]dioxin-5-yl)amino)-7H-pyrrolo[2,3-d]pyrimidin-5-carbonitrile] in this work. It also gave a GI50 [5] of 51 to 100 nM and an IC50 [4] of less than 100 nM.

An IC50 [1] of 301 to 1000 nM, an IC50 [2] of 301 to 1000 nM and a GI50 [3] of 101 to 300 nM were found for `N#Cc1c[nH]c2nc(Nc3ccc(C(=O)N4CCN(C5CC5)CC4)c4c3OCCO4)nc(NC3CCCC3)c12` [Example 148, 4-(cyclopentylamino)-2-((8-(4-cyclopropylpiperazine-1-carbonyl)-2,3-dihydrobenzo[b][1,4]dioxin-5-yl)amino)-7H-pyrrolo[2,3-d]pyrimidine-5-carbonitrile] in this work. For the same compound, the GI50 [5] was 101 to 300 nM and the IC50 [4] was less than 100 nM.

An IC50 [1] of 301 to 1000 nM, an IC50 [2] of 301 to 1000 nM and a GI50 [3] of less than 50 nM were found for `N#Cc1c[nH]c2nc(Nc3ccc(C(=O)N4CCCC4)c4c3OCCO4)nc(NC3CCCCC3)c12` [Example 149, 4-(cyclohexylamino)-2-((8-(pyrrolidine-1-carbonyl)-2,3-dihydrobenzo[b][1,4]dioxin-5-yl)amino)-7H-pyrrolo[2,3-d]pyrimidine-5-carbonitrile] in this work. It also gave a GI50 [5] of 51 to 100 nM and an IC50 [4] of less than 100 nM.

An IC50 [1] of 101 to 300 nM, an IC50 [2] of 101 to 300 nM and an IC50 [4] of less than 100 nM were found for `COc1cc(P2(=O)CCN(C3COC3)CC2)ccc1Nc1nc(NC2CCCC2)c2c(C#N)c[nH]c2n1` [Example 313, 4-(cyclo-pentylamino)-2-((2-methoxy-4-(1-(oxetan-3-yl)-4-oxido-1,4-azaphosphinan-4-yl)phenyl)amino)-7H-pyrrolo[2,3-d]pyrimidine-5-carbonitrile] in this work.
